Assay results: patent US20230295166A1, “ATR INHIBITORS AND USES THEREOF” (ANTENGENE DISCOVERY LIMITED, priority 2020, published 2023)

Assays:
ATR kinase = ATR kinase (Homo sapiens (Human), UniProt Q13535); assay: ATR inhibition assay (mobility shift assay, phosphorylation of FAM-RAD17); format: biochemical; conditions: ATR kinase (Eurofins), substrate FAM-RAD17, mobility shift
Description: Assay 1: ATR Inhibition Assay
Detection of ATR kinase activity utilized the Mobility shift assay to measure the phosphorylation of the substrate protein FAM-RAD17 (GL, Cat. No. 514318, Lot. No. P19042-MJ524315). The assay was developed and conducted at Chempartner. All the test compounds were dissolved in 100% DMSO at concentration of 20 mM, then prepare compounds and conducted the assay as follows: • 1) Transfer 80 μl 20 mM compound to 40 μl of 100% DMSO in a 96-well plate. • 2) Serially dilute the compound by transferring 20 μl to 60 μl of 100% DMSO in the next well and so forth for a total of 10 concentrations. • 3) Add 100 μl of 100% DMSO to two empty wells for no compound control and no enzyme control in the same 96-well plate. Mark the plate as source plate. • 4) Transfer 40 μl of compound from source plate to a new 384-well plate as the intermediate plate. • 5) Transfer 60 nl compounds to assay plate by Echo. • 6) Add ATR kinase (Eurofins, Cat. No. 14-953, Lot. No. D14 JP007N) into Kinase base buffer (50 mM HEPES, pH 7.5; 0.0015% Brij-35; 0.01% Triton) to prepare 2× enzyme solution, then add 10 μl of 2× enzyme solution to each well of the 384-well assay plate, incubate at room temperature for 10 min. • 7) Add FAM-RAD17 and ATP (Sigma, Cat. No. A7699-1G, CAS No. 987-65-5) in the kinase base buffer to prepare 2×peptide solution, then add 10 μl to the assay plate. • 8) Incubate at 28° C. for specified period of time. Add 40 μl of stop buffer (100 mM HEPES, pH 7.5; 0.015% Brij-35; 0.2% Coating Reagent #3; 50 mM EDTA) to stop reaction. • 9) Collect data on Caliper. Convert conversion values to inhibition values.
Percent inhibition=(max−conversion)/(max−min)*100 wherein “max” stands for DMSO control; “min” stands for low control.
Fit the data in XLFit excel add-in version 5.4.0.8 to obtain IC50 values. Equation used is:
Y=Bottom+(Top−Bottom)/(1+(IC50/X)^HillSlope) wherein X means concentration in a format not transformed to logarithms.

LoVo (CCL-229) cells = assay: Tumor cell anti-proliferation assay (CTG assay); format: cell-based; conditions: LoVo human colorectal cancer cells, 96 h, CellTiter-Glo
Procedure, shortened: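 Cells seeded and held 20–24 h, then exposed to 3-fold serial dilutions of compound (final DMSO 0.5%) for 96 h at 37 °C, 5% CO2. Viability measured by CellTiter-Glo luminescence; IC50 and GI50 from a 4-parameter logistic fit.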

ATR kinase, sequence (Q13535 whole entry): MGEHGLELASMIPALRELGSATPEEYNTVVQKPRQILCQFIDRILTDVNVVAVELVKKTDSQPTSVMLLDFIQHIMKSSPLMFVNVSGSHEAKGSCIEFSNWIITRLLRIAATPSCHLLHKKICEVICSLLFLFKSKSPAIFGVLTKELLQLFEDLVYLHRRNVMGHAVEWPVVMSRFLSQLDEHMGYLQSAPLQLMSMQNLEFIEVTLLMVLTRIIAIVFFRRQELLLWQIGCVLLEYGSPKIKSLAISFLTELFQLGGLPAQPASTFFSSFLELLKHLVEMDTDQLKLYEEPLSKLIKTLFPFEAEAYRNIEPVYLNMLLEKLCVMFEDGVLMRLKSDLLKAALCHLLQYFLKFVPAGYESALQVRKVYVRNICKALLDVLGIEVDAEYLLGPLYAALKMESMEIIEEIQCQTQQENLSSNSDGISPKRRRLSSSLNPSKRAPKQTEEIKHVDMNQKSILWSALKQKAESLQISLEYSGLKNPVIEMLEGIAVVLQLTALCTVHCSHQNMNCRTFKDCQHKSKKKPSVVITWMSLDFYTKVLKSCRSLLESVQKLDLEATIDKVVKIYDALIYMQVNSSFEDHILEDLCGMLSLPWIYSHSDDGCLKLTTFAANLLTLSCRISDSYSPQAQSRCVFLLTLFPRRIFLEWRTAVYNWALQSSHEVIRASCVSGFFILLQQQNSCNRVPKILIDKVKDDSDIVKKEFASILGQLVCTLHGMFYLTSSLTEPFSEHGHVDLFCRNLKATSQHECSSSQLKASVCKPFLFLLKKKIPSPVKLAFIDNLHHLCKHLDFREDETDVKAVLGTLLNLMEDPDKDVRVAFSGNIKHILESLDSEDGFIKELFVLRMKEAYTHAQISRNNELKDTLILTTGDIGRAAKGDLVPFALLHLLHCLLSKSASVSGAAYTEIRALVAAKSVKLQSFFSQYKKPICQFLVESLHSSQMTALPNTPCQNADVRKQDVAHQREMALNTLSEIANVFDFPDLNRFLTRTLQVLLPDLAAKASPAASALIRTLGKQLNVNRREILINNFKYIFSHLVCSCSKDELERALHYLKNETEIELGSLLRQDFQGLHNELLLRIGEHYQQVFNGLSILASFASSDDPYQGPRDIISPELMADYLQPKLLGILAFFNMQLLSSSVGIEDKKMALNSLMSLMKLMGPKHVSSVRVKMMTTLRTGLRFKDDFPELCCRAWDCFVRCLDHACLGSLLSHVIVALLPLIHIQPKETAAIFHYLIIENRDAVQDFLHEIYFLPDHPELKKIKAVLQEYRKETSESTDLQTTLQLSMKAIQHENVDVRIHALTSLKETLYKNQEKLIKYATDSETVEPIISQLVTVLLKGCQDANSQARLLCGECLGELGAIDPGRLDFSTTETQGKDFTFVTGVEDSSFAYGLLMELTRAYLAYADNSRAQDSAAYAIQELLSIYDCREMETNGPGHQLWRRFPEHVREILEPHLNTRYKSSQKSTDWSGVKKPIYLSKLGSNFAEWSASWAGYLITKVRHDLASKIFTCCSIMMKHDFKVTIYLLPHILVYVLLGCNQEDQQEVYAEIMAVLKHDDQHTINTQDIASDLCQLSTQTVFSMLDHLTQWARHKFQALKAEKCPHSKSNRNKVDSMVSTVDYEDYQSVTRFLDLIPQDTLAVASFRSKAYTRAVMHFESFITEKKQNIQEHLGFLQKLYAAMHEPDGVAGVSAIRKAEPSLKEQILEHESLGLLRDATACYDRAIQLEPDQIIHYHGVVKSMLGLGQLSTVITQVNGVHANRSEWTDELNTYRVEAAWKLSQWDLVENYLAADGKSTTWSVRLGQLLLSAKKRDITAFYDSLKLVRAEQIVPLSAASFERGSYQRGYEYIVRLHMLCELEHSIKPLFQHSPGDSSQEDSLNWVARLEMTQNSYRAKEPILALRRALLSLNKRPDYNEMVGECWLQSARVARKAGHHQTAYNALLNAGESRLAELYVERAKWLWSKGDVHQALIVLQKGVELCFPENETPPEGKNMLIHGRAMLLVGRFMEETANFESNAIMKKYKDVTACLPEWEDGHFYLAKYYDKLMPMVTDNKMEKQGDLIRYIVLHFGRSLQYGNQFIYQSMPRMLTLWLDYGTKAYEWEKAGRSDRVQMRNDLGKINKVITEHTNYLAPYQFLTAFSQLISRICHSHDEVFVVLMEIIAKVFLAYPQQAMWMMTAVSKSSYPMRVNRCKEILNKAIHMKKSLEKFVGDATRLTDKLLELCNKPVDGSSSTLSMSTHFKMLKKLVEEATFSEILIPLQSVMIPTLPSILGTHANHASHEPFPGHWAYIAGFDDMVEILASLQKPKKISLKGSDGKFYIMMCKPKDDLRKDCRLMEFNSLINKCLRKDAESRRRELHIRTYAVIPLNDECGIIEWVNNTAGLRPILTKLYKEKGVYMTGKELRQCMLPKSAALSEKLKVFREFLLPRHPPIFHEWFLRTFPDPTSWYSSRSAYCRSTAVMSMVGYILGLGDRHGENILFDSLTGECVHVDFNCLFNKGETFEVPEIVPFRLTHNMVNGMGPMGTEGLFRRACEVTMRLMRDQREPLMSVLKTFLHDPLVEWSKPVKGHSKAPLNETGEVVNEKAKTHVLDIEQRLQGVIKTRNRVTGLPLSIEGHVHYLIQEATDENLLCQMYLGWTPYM
ATR kinase, sequence (Q8WXE1 whole entry partner): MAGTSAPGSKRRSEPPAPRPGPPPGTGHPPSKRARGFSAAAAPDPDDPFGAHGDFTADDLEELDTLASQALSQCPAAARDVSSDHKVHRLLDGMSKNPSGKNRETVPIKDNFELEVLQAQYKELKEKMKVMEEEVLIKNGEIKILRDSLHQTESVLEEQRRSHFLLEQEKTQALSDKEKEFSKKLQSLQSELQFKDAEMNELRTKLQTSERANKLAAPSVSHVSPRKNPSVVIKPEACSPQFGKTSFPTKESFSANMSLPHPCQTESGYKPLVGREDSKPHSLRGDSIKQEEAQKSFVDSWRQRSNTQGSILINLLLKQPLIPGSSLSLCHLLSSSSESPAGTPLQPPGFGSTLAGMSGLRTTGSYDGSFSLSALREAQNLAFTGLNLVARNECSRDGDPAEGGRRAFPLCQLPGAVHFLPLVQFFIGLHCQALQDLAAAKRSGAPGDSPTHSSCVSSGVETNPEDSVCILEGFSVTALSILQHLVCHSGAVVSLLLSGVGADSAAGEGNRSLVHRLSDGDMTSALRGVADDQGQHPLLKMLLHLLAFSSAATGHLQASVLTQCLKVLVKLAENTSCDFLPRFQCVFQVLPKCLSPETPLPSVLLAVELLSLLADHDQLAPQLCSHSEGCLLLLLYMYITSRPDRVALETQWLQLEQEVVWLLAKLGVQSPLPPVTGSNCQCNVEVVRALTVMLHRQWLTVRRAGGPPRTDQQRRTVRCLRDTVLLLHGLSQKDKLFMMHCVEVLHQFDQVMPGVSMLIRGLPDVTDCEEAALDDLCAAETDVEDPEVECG

Structure (SMILES)	IC50 (ATR kinase) [nM]	IC50 (LoVo (CCL-229) cells) [nM]
C[C@@H]1COCCN1c1cc(C2(S(C)(=O)=O)CC2)n2ncc(-c3ccn[nH]3)c2n1 [Example 5, (R)-3-methyl-4-(7-(1-(methylsulfonyl)cyclopropyl)-3-(1H-pyrazol-5-yl)pyrazolo[1,5-a]pyrimidin-5-yl)morpholine]	< 100	516
Cc1cc(-c2ncc3c(-c4ccnn4C)cc(N4CCOC[C@H]4C)nn23)[nH]n1 [Example 34, (R)-3-methyl-4-(4-(1-methyl-1H-pyrazol-5-yl)-7-(3-methyl-1H-pyrazol-5-yl)imidazo[1,5-b]pyridazin-2-yl)morpholine]	< 100	23
CS(=O)(=O)C1(c2cc(N3C[C@H]4CC[C@@H](C3)O4)nn3c(-c4ccn[nH]4)ncc23)CC1 [Example 32, (1R,5S)-3-(4-(1-(methylsulfonyl)cyclopropyl)-7-(1H-pyrazol-5-yl)imidazo[1,5-b]pyridazin-2-yl)-8-oxa-3-azabicyclo[3.2.1]octane]	< 100	553
Cc1cc(-c2cnn3c(-c4ccnn4C)cc(N4CCOC[C@H]4C)nc23)[nH]n1 [Example 18, (R)-3-methyl-4-(7-(1-methyl-1H-pyrazol-5-yl)-3-(3-methyl-1H-pyrazol-5-yl)pyrazolo[1,5-a]pyrimidin-5-yl)morpholine]	< 100	384
C[C@@H]1COCCN1c1cc(-c2ccnn2C)c2cnc(-c3ccn[nH]3)n2n1 [Example 27, (R)-3-methyl-4-(4-(1-methyl-1H-pyrazol-5-yl)-7-(1H-pyrazol-5-yl)imidazo[1,5-b]pyridazin-2-yl)morpholine]	< 100	67
C[C@@H]1COCCN1c1cc(C2(C#N)CC2)c2snc(-c3ccn[nH]3)c2n1 [Example 51, (R)-1-(5-(3-methylmorpholino)-3-(1H-pyrazol-5-yl)isothiazolo[4,5-b]pyridin-7-yl)cyclopropane-1-carbonitrile]	< 100	15.9
Cc1cc(-c2nsc3c(C4(C(N)=O)CCCC4)cc(N4CCOC[C@H]4C)nc23)[nH]n1 [Example 87, (R)-1-(3-(3-methyl-1H-pyrazol-5-yl)-5-(3-methylmorpholino)isothiazolo[4,5-b]pyridin-7-yl)cyclopentane-1-carboxamide]	< 100	3
C[C@@H]1COCCN1c1cc(C2(C(N)=O)CCCCC2)c2snc(-c3ccn[nH]3)c2n1 [Example 89, 1-{5-[(3R)-3-methylmorpholin-4-yl]-3-(1H-pyrazol-5-yl)-[1,2]thiazolo[4,5-b]pyridin-7-yl}cyclohexane-1-carboxamide]	< 100	< 1
Cc1cc(-c2cnn3c(C4(S(C)(=O)=O)CC4)cc(N4CCOC[C@H]4C)nc23)[nH]n1 [Example 11, (R)-3-methyl-4-(3-(3-methyl-1H-pyrazol-5-yl)-7-(1-(methylsulfonyl)cyclopropyl)pyrazolo[1,5-a]pyrimidin-5-yl)morpholine]	< 100	384
C[C@@H]1COCCN1c1cc(-c2ccnn2C)n2ncc(-c3ccn[nH]3)c2n1 [Example 1, (R)-3-methyl-4-(7-(1-methyl-1H-pyrazol-5-yl)-3-(1H-pyrazol-5-yl)pyrazolo[1,5-a]pyrimidin-5-yl)morpholine]	< 100	491
C[C@@H]1COCCN1c1cc(C2(S(C)(=O)=O)CC2)c2ncc(-c3ccn[nH]3)n2n1 [Example 22, (R)-3-methyl-4-(8-(1-(methylsulfonyl)cyclopropyl)-3-(1H-pyrazol-5-yl)imidazo[1,2-b]pyridazin-6-yl)morpholine]	< 100	622
Cc1cc(-c2nsc3c(C4(S(C)(=O)=O)CC4)cc(N4CCOC[C@H]4C)nc23)[nH]n1 [Example 50, (R)-3-methyl-4-(3-(3-methyl-1H-pyrazol-5-yl)-7-(1-(methylsulfonyl)cyclopropyl)isothiazolo[4,5-b]pyridin-5-yl)morpholine]	< 100	17
Cc1cc(-c2nsc3c(C4(C#N)CC4)cc(N4CCOC[C@H]4C)nc23)[nH]n1 [Example 52, (R)-1-(3-(3-methyl-1H-pyrazol-5-yl)-5-(3-methylmorpholino)isothiazolo [4,5-b]pyridin-7-yl)cyclopropane-1-carbonitrile]	< 100	17.7
Cc1nnn(C)c1-c1cc(N2CCOC[C@H]2C)nn2c(-c3ccn[nH]3)ncc12 [Example 33, (3R)-4-[4-(dimethyl-1H-1,2,3-triazol-5-yl)-7-(1H-pyrazol-5-yl)imidazo[1,5-b]pyridazin-2-yl]-3-methylmorpholine]	< 100	162
C[C@@H]1COCCN1c1cc(C2(C#N)CCCCC2)c2snc(-c3ccn[nH]3)c2n1 [Example 58, (R)-1-(5-(3-methylmorpholino)-3-(1H-pyrazol-5-yl)isothiazolo[4,5-b]pyridin-7-yl)cyclohexane-1-carbonitrile]	< 100	< 1
C[C@@H]1COCCN1c1cc(-c2ccnn2C)c2snc(-c3ccn[nH]3)c2n1 [Example 29, (3R)-3-methyl-4-[7-(1-methyl-1H-pyrazol-5-yl)-3-(1H-pyrazol-5-yl)-[1,2]thiazolo[4,5-b]pyridin-5-yl]morpholine]	< 100	14
Cc1cc(-c2nsc3c(-c4c(C)nnn4C)cc(N4CCOC[C@H]4C)nc23)[nH]n1 [Example 48, (R)-4-(7-(1,4-dimethyl-1H-1,2,3-triazol-5-yl)-3-(3-methyl-1H-pyrazol-5-yl)isothiazolo[4,5-b]pyridin-5-yl)-3-methylmorpholine]	< 100	33.3
